Article PMC4195943, “A novel small-molecule MRCK inhibitor blocks cancer cell invasion” (Cell Communication and Signaling : CCS, 2014)

Key:
[1] = Caco-2 permeability; type: in vitro ADME; conditions: human
[2] = logD; type: physicochemical
[3] = molecular target: ROCK1 (Homo sapiens, UniProt Q13464); experiment: MLC phosphorylation in MDA-MB-231 cells expressing doxycycline-induced ROCK1 kinase domain (quantitative western blot); design: The kinase domains of MRCKβ (1–473), ROCK1 (1–535) or ROCK2 (1–532) were gene synthesized; expressed in transfected cells; host or cells: MDA-MB-231 D3H2LN-Luc Tet3G cells, pTRE3G-ROCK1 (1–535); conditions: doxycycline-induced MDA-MB-231, 60 minutes treatment; read-out: cell based EC50, MLC phosphorylation induced by ROCK1
ROCK1, sequence (Q13464 1-535): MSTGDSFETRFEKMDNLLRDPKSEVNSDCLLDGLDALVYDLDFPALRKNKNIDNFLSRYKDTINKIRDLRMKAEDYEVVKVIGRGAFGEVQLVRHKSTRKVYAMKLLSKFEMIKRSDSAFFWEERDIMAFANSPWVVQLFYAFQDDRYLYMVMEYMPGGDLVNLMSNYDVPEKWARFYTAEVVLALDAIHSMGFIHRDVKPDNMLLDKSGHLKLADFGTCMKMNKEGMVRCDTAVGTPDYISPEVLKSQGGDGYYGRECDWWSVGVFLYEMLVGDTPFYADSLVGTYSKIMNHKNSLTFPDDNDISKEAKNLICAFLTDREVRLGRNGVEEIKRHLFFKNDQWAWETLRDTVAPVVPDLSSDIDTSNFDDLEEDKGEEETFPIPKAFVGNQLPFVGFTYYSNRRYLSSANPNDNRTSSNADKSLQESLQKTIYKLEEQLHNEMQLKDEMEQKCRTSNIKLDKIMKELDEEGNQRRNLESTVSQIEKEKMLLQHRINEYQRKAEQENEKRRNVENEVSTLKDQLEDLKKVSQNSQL
Protocol: (A) MDA-MB-231 breast cancer cells expressing doxycycline inducible ROCK1, ROCK2 or MRCKβ kinase domains were established as indicated. Following treatment with doxycycline for 18 hours to induce expression, cell lysates were western blotted with antibodies as indicated. […] All results are shown as mean ± standard error of n = 4 independent replicates.
(§1) MDA-MB-231 D3H2LN-Luc cells (Caliper LifeScience) were grown in MEM/EBSS (Hyclone) supplemented with 10% fetal bovine serum (FBS) (Gibco), 1 mM Sodium Pyruvate (Sigma) 2 mM L-glutamine (Gibco), 1× MEM non-essential amino acids (Gibco) plus penicillin-streptomycin (10 Units/ml and 10 μg/ml respectively) at 37°C in 5% CO2 in a humidified incubator. MDA-MB-231 D3H2LN-Luc TetOn MRCKβ, ROCK1 and ROCK2 selective cell lines were grown in the same media with 10% FBS replaced with 10% Tet System Approved FBS (Clontech).
(§2) The kinase domains of MRCKβ (1–473), ROCK1 (1–535) or ROCK2 (1–532) were gene synthesized (Genscript) and subcloned into pTRE3G (Clontech). MDA-MB-231 D3H2LN-Luc Tet3G cells were co-transfected with pTRE3G-MRCKβ (1–473), pTRE3G-ROCK1 (1–535) or pTRE3G-ROCK2 (1–532), together with a linear Pur^r-selection marker using Xfect transfection reagent according to manufacturer’s instructions. […] Each clone was treated with or without doxycycline (1 μg/ml) for 24 hours and kinase domain expression and activity determined by western blotting. […]

[4] = molecular target: ROCK2 (Homo sapiens, UniProt O75116); experiment: MLC phosphorylation in MDA-MB-231 cells expressing doxycycline-induced ROCK2 kinase domain (quantitative western blot); design: The kinase domains of MRCKβ (1–473), ROCK1 (1–535) or ROCK2 (1–532) were gene synthesized; expressed in transfected cells; host or cells: MDA-MB-231 D3H2LN-Luc Tet3G cells, pTRE3G-ROCK2 (1–532); conditions: doxycycline-induced MDA-MB-231, 60 minutes treatment; read-out: cell based EC50, MLC phosphorylation induced by ROCK2
ROCK2, sequence (O75116 1-532): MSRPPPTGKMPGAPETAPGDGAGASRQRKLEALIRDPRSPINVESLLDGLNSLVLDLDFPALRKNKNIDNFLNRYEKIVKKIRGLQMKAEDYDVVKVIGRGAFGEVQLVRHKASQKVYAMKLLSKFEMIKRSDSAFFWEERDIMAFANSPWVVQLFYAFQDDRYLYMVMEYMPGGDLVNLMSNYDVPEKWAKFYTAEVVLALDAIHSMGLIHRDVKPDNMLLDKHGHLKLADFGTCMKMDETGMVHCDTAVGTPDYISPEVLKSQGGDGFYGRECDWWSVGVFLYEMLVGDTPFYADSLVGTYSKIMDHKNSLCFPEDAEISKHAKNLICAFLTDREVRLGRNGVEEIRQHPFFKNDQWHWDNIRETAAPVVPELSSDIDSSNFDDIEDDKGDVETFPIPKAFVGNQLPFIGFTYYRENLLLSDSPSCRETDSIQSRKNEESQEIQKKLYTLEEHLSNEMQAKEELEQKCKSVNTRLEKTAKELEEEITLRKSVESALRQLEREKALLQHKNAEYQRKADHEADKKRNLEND
Protocol: (A) MDA-MB-231 breast cancer cells expressing doxycycline inducible ROCK1, ROCK2 or MRCKβ kinase domains were established as indicated. Following treatment with doxycycline for 18 hours to induce expression, cell lysates were western blotted with antibodies as indicated.
as §1, §2

SMILES: O=C(Nc1cn[nH]c1-c1ccccn1)c1nn(C2CCNCC2)cc1Cl [BDP5290, 4-chloro-1-(4-piperidyl)-N-[5-(2-pyridyl)-1H-pyrazol-4-yl]pyrazole-3-carboxamide]
- Papp [1]: 1.71 nm/s
- logD [2]: 0.786
- EC50 [3]: 0.501 µM
- EC50 [4]: 0.447 µM
